≈ marks a conversion by molar mass, not a printed value.
Experiments:
Assay type in all cases: functional
Candida albicans [1] = experiment: Antifungal activity against FCZ-resistant Candida albicans 17# by CLSI based broth microdilution method
Candida albicans [2] = experiment: Antifungal activity against FCZ-resistant Candida albicans 632 by CLSI based broth microdilution method
Candida albicans [3] = experiment: Antifungal activity against FCZ-resistant Candida albicans 904 by CLSI based broth microdilution method
Candida albicans [4] = experiment: Antifungal activity against FCZ-resistant Candida albicans 901 by CLSI based broth microdilution method
Candida albicans [5] = experiment: Antifungal activity against FCZ-resistant Candida albicans CaR by CLSI based broth microdilution method
[Candida] zeylanoides = Antifungal activity against Candida zeylanoides by CLSI based broth microdilution method; settings: Dujonia zeylanoides
Candida albicans [6] = experiment: Antifungal activity against Candida albicans by CLSI based broth microdilution method
Candida parapsilosis = experiment: Antifungal activity against Candida parapsilosis by CLSI based broth microdilution method; settings: Lodderomyces parapsilosis
Candida albicans [7] = experiment: Antifungal activity against Candida albicans sc5314 by CLSI based broth microdilution method
Pichia kudriavzevii = experiment: Antifungal activity against Pichia kudriavzevii by CLSI based broth microdilution method
Nakaseomyces glabratus = experiment: Antifungal activity against Candida glabrata by CLSI based broth microdilution method
Aspergillus fumigatus = experiment: Antifungal activity against Aspergillus fumigatus by CLSI based broth microdilution method
Cryptococcus neoformans = experiment: Antifungal activity against Cryptococcus neoformans by CLSI based broth microdilution method
Candida albicans [8] = experiment: Fungicidal activity against FCZ-resistant Candida albicans 632
Candida albicans [9] = experiment: Fungicidal activity against FCZ-resistant Candida albicans CaR
Candida albicans [10] = experiment: Fungicidal activity against FCZ-resistant Candida albicans 17#
Candida albicans [11] = experiment: Fungicidal activity against FCZ-resistant Candida albicans 901
Candida albicans [12] = experiment: Fungicidal activity against FCZ-resistant Candida albicans 904
Candida albicans [13] = experiment: Fungicidal activity against Candida albicans sc5314
Candida albicans [14] = experiment: Fungicidal activity against Candida albicans

| SMILES | MIC (Candida albicans [1]) [µg/mL] | MIC (Candida albicans [2]) [µg/mL] | MIC (Candida albicans [3]) [µg/mL] | MIC (Candida albicans [4]) [µg/mL] | MIC (Candida albicans [5]) [µg/mL] | MIC ([Candida] zeylanoides) [µg/mL] | MIC (Candida albicans [6]) [µg/mL] | MIC (Candida parapsilosis) [µg/mL] | MIC (Candida albicans [7]) [µg/mL] | MIC (Pichia kudriavzevii) [µg/mL] | MIC (Nakaseomyces glabratus) [µg/mL] | MIC (Aspergillus fumigatus) [µg/mL] | MIC (Cryptococcus neoformans) [µg/mL] | MFC (Candida albicans [8]) [µg/mL] | MFC (Candida albicans [9]) [µg/mL] | MFC (Candida albicans [10]) [µg/mL] | MFC (Candida albicans [11]) [µg/mL] | MFC (Candida albicans [12]) [µg/mL] | MFC (Candida albicans [13]) [µg/mL] | MFC (Candida albicans [14]) [µg/mL] |
| --- | --- | --- | --- | --- | --- | --- | --- | --- | --- | --- | --- | --- | --- | --- | --- | --- | --- | --- | --- | --- |
| Clc1ccc(C(Cn2cnnn2)[Se][Se]C(Cn2cnnn2)c2ccc(Cl)cc2Cl)c(Cl)c1 (stereo unspecified) | 64 (≈ 99.7 µM) | > 64 | > 64 | > 64 | 64 (≈ 99.7 µM) |  |  |  |  |  |  |  |  |  |  |  |  |  |  |  |
| Fc1ccc(C(Cn2cnnn2)[Se]C(Cn2cnnn2)c2ccc(F)cc2)cc1 (stereo unspecified) | > 64 | > 64 | > 64 | > 64 | > 64 | 32 (≈ 69.4 µM) | > 64 | > 64 | > 64 | > 64 | > 64 | > 64 | > 64 |  |  |  |  |  |  |  |
| Fc1ccc(C(Cn2ccnn2)[Se][Se]C(Cn2ccnn2)c2ccc(F)cc2)cc1 (stereo unspecified) | > 64 | > 64 | > 64 | > 64 | 32 (≈ 59.4 µM) |  |  |  |  |  |  |  |  |  |  |  |  |  |  |  |
| Fc1ccc(C(Cn2ccnc2)[Se][Se]C(Cn2ccnc2)c2ccc(F)cc2F)c(F)c1 (stereo unspecified) | 8 (≈ 14 µM) | 8 (≈ 14 µM) | 8 (≈ 14 µM) | 4 (≈ 6.99 µM) | 4 (≈ 6.99 µM) |  |  |  |  |  |  |  |  | 16 (≈ 28 µM) | > 64 | > 64 | 8 (≈ 14 µM) | 8 (≈ 14 µM) | 16 (≈ 28 µM) | 32 (≈ 55.9 µM) |
| Fc1ccc(C(Cn2cncn2)[Se][Se]C(Cn2cncn2)c2ccc(F)cc2F)c(F)c1 (stereo unspecified) | 8 (≈ 13.9 µM) | > 64 | 64 (≈ 111 µM) | 16 (≈ 27.9 µM) | 16 (≈ 27.9 µM) |  |  |  |  |  |  |  |  |  |  |  |  |  |  |  |
| Clc1ccc(C(Cn2ccnn2)[Se]C(Cn2ccnn2)c2ccc(Cl)cc2)cc1 (stereo unspecified) | > 64 | > 64 | > 64 | > 64 | > 64 | 64 (≈ 130 µM) | > 64 | > 64 | > 64 | 32 (≈ 65 µM) | 8 (≈ 16.3 µM) | > 64 | > 64 |  |  |  |  |  |  |  |
| Clc1ccc(C(Cn2ccnc2)[Se]C(Cn2ccnc2)c2ccc(Cl)cc2Cl)c(Cl)c1 (stereo unspecified) | 2 (≈ 3.58 µM) | 16 (≈ 28.6 µM) | 16 (≈ 28.6 µM) | 64 (≈ 114 µM) | 2 (≈ 3.58 µM) | 8 (≈ 14.3 µM) | 16 (≈ 28.6 µM) | 64 (≈ 114 µM) | 2 (≈ 3.58 µM) | 128 (≈ 229 µM) | 64 (≈ 114 µM) | > 64 | 64 (≈ 114 µM) | > 64 | > 64 | > 64 | > 64 | 32 (≈ 57.2 µM) | 64 (≈ 114 µM) | > 64 |
| Fc1ccc(C(Cn2cnnn2)[Se]C(Cn2cnnn2)c2ccc(F)cc2F)c(F)c1 (stereo unspecified) | > 64 | > 64 | > 64 | > 64 | > 64 | > 64 | > 64 | > 64 | > 64 | > 64 | > 64 | > 64 | > 64 |  |  |  |  |  |  |  |
| Fc1ccc(C(Cn2ccnn2)[Se]C(Cn2ccnn2)c2ccc(F)cc2)cc1 (stereo unspecified) | > 64 | > 64 | > 64 | > 64 | > 64 | 64 (≈ 139 µM) | > 64 | > 64 | > 64 | 64 (≈ 139 µM) | 8 (≈ 17.4 µM) | > 64 | > 64 |  |  |  |  |  |  |  |
| Fc1ccc(C(Cn2cncn2)[Se]C(Cn2cncn2)c2ccc(F)cc2F)c(F)c1 (stereo unspecified) | 8 (≈ 16.2 µM) | 32 (≈ 64.6 µM) | 16 (≈ 32.3 µM) | 16 (≈ 32.3 µM) | 32 (≈ 64.6 µM) | 8 (≈ 16.2 µM) | 64 (≈ 129 µM) | > 64 | 4 (≈ 8.08 µM) | > 64 | > 64 | > 64 | 4 (≈ 8.08 µM) |  |  |  |  |  |  |  |
| Clc1ccc(C(Cn2cncn2)[Se]C(Cn2cncn2)c2ccc(Cl)cc2Cl)c(Cl)c1 (stereo unspecified) | 8 (≈ 14.3 µM) | 64 (≈ 114 µM) | > 64 | > 64 | 32 (≈ 57 µM) | 0.5 (≈ 0.891 µM) | 64 (≈ 114 µM) | 64 (≈ 114 µM) | 32 (≈ 57 µM) | 64 (≈ 114 µM) | 32 (≈ 57 µM) | > 64 | 4 (≈ 7.13 µM) |  |  |  |  |  |  |  |
| Clc1ccc(C(Cn2cncn2)[Se]C(Cn2cncn2)c2ccc(Cl)cc2)cc1 (stereo unspecified) | 8 (≈ 16.3 µM) | > 64 | 64 (≈ 130 µM) | 16 (≈ 32.5 µM) | 32 (≈ 65 µM) | 16 (≈ 32.5 µM) | > 64 | > 64 | 32 (≈ 65 µM) | > 64 | > 64 | > 64 | 4 (≈ 8.13 µM) |  |  |  |  |  |  |  |
| CCC(C)n1ncn(-c2ccc(N3CCN(c4ccc(OCC5COC(Cn6cncn6)(c6ccc(Cl)cc6Cl)O5)cc4)CC3)cc2)c1=O (stereo unspecified) [ITRACONAZOLE] | > 64 | > 64 | > 64 | > 64 | 8 (≈ 11.3 µM) |  |  |  |  |  |  |  |  |  |  |  |  |  |  |  |
| Clc1ccc(C(Cn2cnnn2)[Se]C(Cn2cnnn2)c2ccc(Cl)cc2Cl)c(Cl)c1 (stereo unspecified) | > 64 | > 64 | > 64 | > 64 | > 64 | > 64 | > 64 | > 64 | > 64 | > 64 | > 64 | > 64 | > 64 |  |  |  |  |  |  |  |

From ChEMBL document CHEMBL5352410, “Discovery of novel selenium-containing azole derivatives as antifungal agents by exploiting the hydrophobic cleft of CYP51” (Eur J Med Chem, 2022)
